In ChEMBL document CHEMBL2202968, “2-Styrylindolium based fluorescent probes visualize neurofibrillary tangles in Alzheimer's disease” (Bioorg Med Chem Lett, 2012):
The source made the active and inactive calls. No cut-off for these calls is given here.

How the values were obtained:
HepG2 = experiment: Cytotoxicity against human HepG2 cells after 24 hrs; assay type: cell-based; conditions: HepG2, 24 h
Danio rerio [1] = organism: Danio rerio; experiment: Toxicity against Zebra fish embryo assessed as lesions up to 10 uM at 24 hrs post-fertilization by microscopic analysis; assay type: organism-based; conditions: zebrafish, in vivo
Danio rerio [2] = organism: Danio rerio; experiment: Toxicity against juvenile Zebra fish assessed as lesions in yolk sac up to 10 uM at 72 hrs post-fertilization by microscopic analysis; assay type: organism-based; conditions: zebrafish, in vivo
[3] = target: T1, Microtubule-associated protein tau (Homo sapiens, UniProt P10636); experiment: Binding affinity to Tau aggregates in Alzheimer patient hippocampus by fluorescence microscopy; assay type: tissue-based
T1 sequence (P10636 whole entry): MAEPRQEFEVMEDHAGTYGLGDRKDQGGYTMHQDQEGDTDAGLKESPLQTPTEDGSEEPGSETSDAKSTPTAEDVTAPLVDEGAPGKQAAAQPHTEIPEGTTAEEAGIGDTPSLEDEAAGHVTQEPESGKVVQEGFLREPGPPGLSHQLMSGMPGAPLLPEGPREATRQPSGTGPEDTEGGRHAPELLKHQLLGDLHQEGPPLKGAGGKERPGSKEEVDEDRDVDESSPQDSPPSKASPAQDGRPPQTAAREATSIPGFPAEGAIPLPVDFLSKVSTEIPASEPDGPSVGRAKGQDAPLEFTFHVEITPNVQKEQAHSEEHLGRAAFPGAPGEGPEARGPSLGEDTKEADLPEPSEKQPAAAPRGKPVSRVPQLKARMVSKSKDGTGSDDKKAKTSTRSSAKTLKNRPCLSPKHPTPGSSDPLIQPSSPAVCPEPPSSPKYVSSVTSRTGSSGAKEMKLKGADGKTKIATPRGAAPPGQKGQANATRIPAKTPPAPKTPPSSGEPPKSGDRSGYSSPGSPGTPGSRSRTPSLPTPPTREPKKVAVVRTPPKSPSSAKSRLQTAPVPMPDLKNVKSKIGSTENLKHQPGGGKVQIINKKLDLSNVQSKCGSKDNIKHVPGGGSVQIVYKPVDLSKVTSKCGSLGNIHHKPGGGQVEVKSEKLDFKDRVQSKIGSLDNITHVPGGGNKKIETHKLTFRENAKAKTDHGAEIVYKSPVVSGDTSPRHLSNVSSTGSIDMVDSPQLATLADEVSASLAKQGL

[4] = Displacement of thiazine red R from amyloid beta (1 to 40) aggregate after 30 mins by fluorimetric analysis
[5] = target: T1, Microtubule-associated protein tau; experiment: Displacement of thiazine red R from human Tau aggregate expressed in Escherichia coli after 30 mins by fluorimetric analysis
[6] = target: Amyloid-beta precursor protein (Homo sapiens) (UniProt P05067); experiment: Binding affinity to amyloid beta aggregates in Alzheimer patient hippocampus by fluorescence microscopy; assay type: tissue-based
Sequence of Amyloid-beta precursor protein (Homo sapiens) (P05067 whole entry): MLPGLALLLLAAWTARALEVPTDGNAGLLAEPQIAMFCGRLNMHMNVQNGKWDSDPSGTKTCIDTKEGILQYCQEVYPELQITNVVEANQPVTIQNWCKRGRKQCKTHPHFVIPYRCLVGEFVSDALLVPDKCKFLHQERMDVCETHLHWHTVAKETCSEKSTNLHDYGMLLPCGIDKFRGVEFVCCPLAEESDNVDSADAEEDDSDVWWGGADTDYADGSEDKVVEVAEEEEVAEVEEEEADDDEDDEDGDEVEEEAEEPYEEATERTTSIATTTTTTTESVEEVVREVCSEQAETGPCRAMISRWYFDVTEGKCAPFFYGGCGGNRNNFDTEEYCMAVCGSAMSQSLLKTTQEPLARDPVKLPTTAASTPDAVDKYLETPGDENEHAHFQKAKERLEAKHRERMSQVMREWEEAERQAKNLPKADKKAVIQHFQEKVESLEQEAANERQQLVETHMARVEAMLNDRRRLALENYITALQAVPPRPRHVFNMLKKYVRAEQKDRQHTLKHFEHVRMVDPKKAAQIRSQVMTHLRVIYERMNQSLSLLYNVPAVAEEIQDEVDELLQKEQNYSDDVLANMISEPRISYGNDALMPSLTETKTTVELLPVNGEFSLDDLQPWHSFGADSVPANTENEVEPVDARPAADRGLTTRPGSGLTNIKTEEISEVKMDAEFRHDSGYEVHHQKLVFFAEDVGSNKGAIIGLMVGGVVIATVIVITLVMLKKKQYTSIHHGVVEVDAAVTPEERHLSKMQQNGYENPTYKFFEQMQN

[7] = Aqueous solubility of the compound; assay type: physicochemical; conditions: buffer
[8] = Binding affinity to amyloid beta (1 to 40) aggregate

Row | Activity [3] | IC50 [4] [nM] | IC50 [5] [nM] | Activity [6] | solubility [7] [µg/mL] | Ki [8] [nM] | Compound | EC50 (HepG2) [nM] | Activity (Danio rerio [1]) | Activity (Danio rerio [2])
1 | Active | 1.37 | 1.41 | inactive | > 100 |  | CCCC[N+]1=C(/C=C/c2ccc(N(CC)CC)cc2)C(C)(C)c2ccccc21.[I-] | 930 | Non-toxic | Toxic
2 |  | > 10000 | > 10000 |  |  |  | CNc1ccc(-c2ccc3ccccc3n2)cc1 |  |  | 
3 | Active |  |  | inactive | > 500 |  | CN1CCN(c2ccc(/C=C/C3=[N+](C)c4ccccc4C3(C)C)cc2)CC1.[I-] |  |  | 
4 | Active |  |  | inactive | > 500 |  | C[N+]1=C(/C=C/c2ccc(O)cc2)C(C)(C)c2ccccc21.[I-] |  |  | 

Further lines, the compound ahead of its results:

Row | Compound | Activity [3] | IC50 [4] [nM] | IC50 [5] [nM] | Activity [6] | solubility [7] [µg/mL] | Ki [8] [nM] | EC50 (HepG2) [nM] | Activity (Danio rerio [1]) | Activity (Danio rerio [2])
5 | C[N+]1=C(/C=C/c2ccc(N3CCCC3)cc2)C(C)(C)c2ccccc21.[I-] | Active |  | 5.1 | inactive | > 500 |  | 8310 | Non-toxic | 
6 | CC(=C(C#N)C#N)c1ccc2cc(N(C)CCF)ccc2c1 |  | 1470 | 1630 |  |  |  |  |  | 
7 | COc1cc(/C=C/c2ccc(O)cc2)ccc1/C=C/c1ccc(O)cc1 |  | 140 |  |  |  | 26.8 |  |  | 
8 | CNc1ccc(-c2nc3ccc(O)cc3s2)cc1 [PITTSBURGH COMPOUND B UNLABELLED] |  |  | 3260 |  |  |  |  |  | 
9 | COc1ccc(/C=C/C2=[N+](C)c3ccccc3C2(C)C)cc1.[I-] | Active |  |  | inactive | > 500 |  | 10900 | Non-toxic | 
10 | CCN(CC)c1ccc(/C=C/C2=[N+](C)c3ccccc3C2(C)C)cc1.[I-] | Active |  |  | inactive | > 500 |  | 8570 | Non-toxic | 
